The values below come from US20250327110A1, “HIGH THROUGHPUT MULTIPLEXED SERUM BASED BACTERICIDAL ASSAYS (SBAs), AND KITS FOR USE THEREIN” (priority 2024, published 2025).

Structures are written as SMILES.

Experiment [1] deals with S. sonnei strain Moseley. It counts as cell-based, Shigella sonnei. To be noted: for Antibiotic Sensitivity: strain Moseley (sonnei); for antibiotic resistance screening: strain Moseley, natural resistance. An excerpt:
(§1) Strains 2457T (S. flexneri 2a) and SNP0006 (S. flexneri 6) were made resistant to streptomycin and nalidixic acid, respectively, by natural selection as previously described (Burton, R. L. and M. H. Nahm, “Development and validation of a fourfold multiplexed opsonization assay (MOPA4) for pneumococcal antibodies”, Clin Vaccine Immunol, 2006. 13(9): p. 1004-9). Strain J17B (S. flexneri 3a) was made kanamycin resistant by transduction with a nadC:kan fusion gene with P1 phage (Prunier, A. L., et al., “Genetic structure of the nadA and nadB antivirulence loci in Shigella spp.”, J Bacteriol, 2007. 189(17): p. 6482-6), which was obtained from a S. flexneri 2a strain (BS655) (personal communication with Dr. C. Turnbough at UAB).
(§2) To prepare working stocks for the target strains, primary stocks were streaked onto blood agar plates and incubated at 37° C./5% CO2. After overnight culture, multiple colonies were transferred to liquid culture medium (Todd-Hewitt broth with 0.5% yeast extract) and grown at 37° C. until cultures reached an OD600 of 0.5-1.4. After reaching the desired OD, glycerol was added to a final concentration of 16%, and 0.5-ml aliquots were prepared and stored at ≤−60° C. until needed. Each WS was tested to confirm the antibiotic sensitivity/resistance profile and to determine the optimal dilution of bacteria to use for the assay.
(§3) All target strains were tested individually in assay conditions for growth on plates containing antibiotics.

Experiment [2] relates to SNP0001 (flexneri 2a, parent 2457T). The experiment can be described thus: antibiotic sensitivity of mSBA target strain SNP0001. It counts as cell-based, Shigella flexneri. To be noted: strain SNP0001 (flexneri 2a).
Description: as §1, §2, §3

Experiment [3] has as its system SNP0004 (flexneri 3a, parent J17B). The experiment can be described thus: antibiotic sensitivity of mSBA target strain SNP0004. The following applies: strain SNP0004 (flexneri 3a). It counts as cell-based, Shigella flexneri.
Description: as §1, §2, §3

Experiment [4] deals with SNP0006 (flexneri 6, parent CCH060). The experiment can be described thus: antibiotic sensitivity of mSBA target strain SNP0006. The following applies: strain SNP0006 (flexneri 6). It counts as cell-based, Shigella flexneri.
Description: as §1, §2, §3

Regarding `NC[C@H]1O[C@H](O[C@H]2[C@H](O)[C@@H](O[C@H]3O[C@H](CO)[C@@H](O)[C@H](N)[C@H]3O)[C@H](N)C[C@@H]2N)[C@H](O)[C@@H](O)[C@@H]1O` [Kan, kanamycin], the “Antibiotic Sensitivity” value is on record as “S” in experiment [1], “S” in experiment [2], “R” in experiment [3] and “S” in experiment [4].

`CCn1cc(C(=O)O)c(=O)c2ccc(C)nc21` [NA, nalidixic acid]: the “Antibiotic Sensitivity” value is “S” in experiment [1], “S” in experiment [2], “S” in experiment [3] and “R” in experiment [4]. For the same molecule, the antibiotic resistance screening entry in experiment [1] is given as “sensitive”.

For the molecule `[H]/N=C(/N)N[C@H]1[C@H](O)[C@@H](O)[C@H](O[C@@H]2O[C@@H](C)[C@](O)(C=O)[C@H]2O[C@@H]2O[C@@H](CO)[C@H](O)[C@@H](O)[C@@H]2NC)[C@@H](N/C(N)=N\[H])[C@@H]1O` [Strep, streptomycin], the “Antibiotic Sensitivity” value in experiment [1] is reported as “S”; in experiment [2] it was “R”; in experiment [3], “S”; in experiment [4], “S”. Besides, in experiment [1], the antibiotic resistance screening result is “sensitive”.

`C[C@H]1c2cccc(O)c2C(O)=C2C(=O)[C@]3(O)C(O)=C(C(N)=O)C(=O)[C@@H](N(C)C)[C@@H]3[C@@H](O)[C@@H]21` [Dox, doxycycline]: the “Antibiotic Sensitivity” value is given as “R” in experiment [1], “S” in experiment [2], “S” in experiment [3] and “S” in experiment [4]. Further, the antibiotic resistance screening result in experiment [1] is “naturally resistant”.
